Measurements: PubChem BioAssay (NCI)
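Cultured in 96-well plates, cells were exposed to test compound for 48 hours across five concentrations. TGI is the concentration that stops growth completely.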

Columns and labels:
Test in all cases: DTP human tumour cell line panel, 48 h
786-0 renal = test system: 786-0 renal
A498 renal = test system: A498 renal
A549 NSCLC = test system: A549 NSCLC
ACHN renal = test system: ACHN renal
BT-549 breast = test system: BT-549 breast
CAKI-1 renal = test system: CAKI-1 renal
COLO 205 colon = test system: COLO 205 colon
DU-145 prostate = test system: DU-145 prostate
EKVX NSCLC = test system: EKVX NSCLC
HCC-2998 colon = test system: HCC-2998 colon
HCT-116 colon = test system: HCT-116 colon
HCT-15 colon = test system: HCT-15 colon
HL-60(TB) leukemia = test system: HL-60(TB) leukemia
HOP-62 NSCLC = test system: HOP-62 NSCLC
HOP-92 NSCLC = test system: HOP-92 NSCLC
HS 578T breast = test system: HS 578T breast
IGROV1 ovarian = test system: IGROV1 ovarian
K-562 leukemia = test system: K-562 leukemia
KM12 colon = test system: KM12 colon
LOX IMVI melanoma = test system: LOX IMVI melanoma
M14 melanoma = test system: M14 melanoma
MALME-3M melanoma = test system: MALME-3M melanoma
MCF7 breast = test system: MCF7 breast
MDA-MB-231 breast = test system: MDA-MB-231 breast
MDA-MB-435 = test system: MDA-MB-435
MDA-N = test system: MDA-N
MOLT-4 leukemia = test system: MOLT-4 leukemia
NCI-H23 lung = test system: NCI-H23 lung
NCI-H460 lung = test system: NCI-H460 lung
NCI-H522 lung = test system: NCI-H522 lung
OVCAR-3 ovarian = test system: OVCAR-3 ovarian
OVCAR-4 ovarian = test system: OVCAR-4 ovarian
OVCAR-5 ovarian = test system: OVCAR-5 ovarian
PC-3 prostate = test system: PC-3 prostate
RPMI-8226 leukemia = test system: RPMI-8226 leukemia
RXF 393 renal = test system: RXF 393 renal
SF-268 CNS = test system: SF-268 CNS
SF-295 CNS = test system: SF-295 CNS
SF-539 CNS = test system: SF-539 CNS
SK-MEL-2 melanoma = test system: SK-MEL-2 melanoma
SK-MEL-28 melanoma = test system: SK-MEL-28 melanoma
SK-MEL-5 melanoma = test system: SK-MEL-5 melanoma
SK-OV-3 ovarian = test system: SK-OV-3 ovarian
SN12C renal = test system: SN12C renal
SNB-19 CNS = test system: SNB-19 CNS
SNB-75 CNS = test system: SNB-75 CNS
SR leukemia = test system: SR leukemia
SW-620 colon = test system: SW-620 colon
T-47D breast = test system: T-47D breast
TK-10 renal = test system: TK-10 renal
U251 CNS = test system: U251 CNS
UACC-257 melanoma = test system: UACC-257 melanoma
UACC-62 melanoma = test system: UACC-62 melanoma
UO-31 renal = test system: UO-31 renal
CCRF-CEM leukemia = test system: CCRF-CEM leukemia
HT29 colon = test system: HT29 colon
NCI-H226 lung = test system: NCI-H226 lung
NCI/ADR-RES ovarian = test system: NCI/ADR-RES ovarian
OVCAR-8 ovarian = test system: OVCAR-8 ovarian

`Brc1ccc(-c2[nH]c3ccccc3c2N=Nc2ccccc2)cc1` gave a TGI (786-0 renal) of 32.9 µM, a TGI (A498 renal) of 44.1 µM and a TGI (A549 NSCLC) of 30.5 µM. For the same molecule, the TGI (ACHN renal) was 37.2 µM, the TGI (BT-549 breast) was 41.5 µM and the TGI (CAKI-1 renal) was 27.8 µM. For the same molecule, the TGI (COLO 205 colon) was 28.5 µM, the TGI (DU-145 prostate) was 32.2 µM and the TGI (EKVX NSCLC) was 32.9 µM. The TGI (HCC-2998 colon) was 30.7 µM, the TGI (HCT-116 colon) was 34.8 µM and the TGI (HCT-15 colon) was 30 µM. For the same molecule, the TGI (HL-60(TB) leukemia) was 63.4 µM, the TGI (HOP-62 NSCLC) was 34.7 µM and the TGI (HOP-92 NSCLC) was 36.2 µM. The TGI (HS 578T breast) was 44.1 µM, the TGI (IGROV1 ovarian) was 26.2 µM and the TGI (K-562 leukemia) was > 100 µM. The TGI (KM12 colon) was 36.1 µM, the TGI (LOX IMVI melanoma) was 65.2 µM and the TGI (M14 melanoma) was 33.5 µM. It also gave a TGI (MALME-3M melanoma) of 36.1 µM, a TGI (MCF7 breast) of 31.7 µM and a TGI (MDA-MB-231 breast) of 35.8 µM. For the same molecule, the TGI (MDA-MB-435) was 34.5 µM, the TGI (MDA-N) was 30.5 µM and the TGI (MOLT-4 leukemia) was 38.6 µM. The TGI (NCI-H23 lung) was 34.1 µM, the TGI (NCI-H460 lung) was 31.8 µM and the TGI (NCI-H522 lung) was 34.6 µM. For the same molecule, the TGI (OVCAR-3 ovarian) was 26.8 µM, the TGI (OVCAR-4 ovarian) was 30.4 µM and the TGI (OVCAR-5 ovarian) was 33.5 µM. The TGI (PC-3 prostate) was 32.6 µM, the TGI (RPMI-8226 leukemia) was 58 µM and the TGI (RXF 393 renal) was 30.8 µM. It also gave a TGI (SF-268 CNS) of 36 µM, a TGI (SF-295 CNS) of 33.3 µM and a TGI (SF-539 CNS) of 32 µM. For the same molecule, the TGI (SK-MEL-2 melanoma) was 36.7 µM, the TGI (SK-MEL-28 melanoma) was 37.8 µM and the TGI (SK-MEL-5 melanoma) was 32.7 µM. For the same molecule, the TGI (SK-OV-3 ovarian) was 33 µM, the TGI (SN12C renal) was 31.6 µM and the TGI (SNB-19 CNS) was 38.1 µM. For the same molecule, the TGI (SNB-75 CNS) was 33.9 µM, the TGI (SR leukemia) was 51.8 µM and the TGI (SW-620 colon) was 35.3 µM. For the same molecule, the TGI (T-47D breast) was 32.5 µM, the TGI (TK-10 renal) was 37.8 µM and the TGI (U251 CNS) was 33.9 µM. It also gave a TGI (UACC-257 melanoma) of 35.1 µM, a TGI (UACC-62 melanoma) of 36.7 µM and a TGI (UO-31 renal) of 29.9 µM.

`COc1ccc2oc(=N)c(C(N)=O)cc2c1` was tested, and the TGI (786-0 renal) was > 100 µM, the TGI (A498 renal) was > 100 µM and the TGI (A549 NSCLC) was > 100 µM. For the same molecule, the TGI (ACHN renal) was > 100 µM, the TGI (BT-549 breast) was > 100 µM and the TGI (CAKI-1 renal) was > 100 µM. The TGI (CCRF-CEM leukemia) was > 100 µM, the TGI (COLO 205 colon) was > 100 µM and the TGI (DU-145 prostate) was > 100 µM. The TGI (HCC-2998 colon) was > 100 µM, the TGI (HCT-116 colon) was > 100 µM and the TGI (HCT-15 colon) was > 100 µM. For the same molecule, the TGI (HL-60(TB) leukemia) was > 100 µM, the TGI (HOP-62 NSCLC) was > 100 µM and the TGI (HOP-92 NSCLC) was > 100 µM. For the same molecule, the TGI (HS 578T breast) was 61.7 µM, the TGI (HT29 colon) was > 100 µM and the TGI (IGROV1 ovarian) was > 100 µM. The TGI (K-562 leukemia) was > 100 µM, the TGI (KM12 colon) was > 100 µM and the TGI (LOX IMVI melanoma) was > 100 µM. The TGI (M14 melanoma) was > 100 µM, the TGI (MDA-MB-231 breast) was > 100 µM and the TGI (MDA-MB-435) was > 100 µM. The TGI (MDA-N) was > 100 µM, the TGI (MOLT-4 leukemia) was > 100 µM and the TGI (NCI-H226 lung) was > 100 µM. The TGI (NCI-H23 lung) was > 100 µM, the TGI (NCI-H460 lung) was > 100 µM and the TGI (NCI/ADR-RES ovarian) was > 100 µM. For the same molecule, the TGI (OVCAR-3 ovarian) was > 100 µM, the TGI (OVCAR-4 ovarian) was > 100 µM and the TGI (OVCAR-5 ovarian) was > 100 µM. The TGI (OVCAR-8 ovarian) was > 100 µM, the TGI (PC-3 prostate) was > 100 µM and the TGI (RPMI-8226 leukemia) was > 100 µM. For the same molecule, the TGI (RXF 393 renal) was > 100 µM, the TGI (SF-268 CNS) was > 100 µM and the TGI (SF-539 CNS) was > 100 µM. For the same molecule, the TGI (SK-MEL-2 melanoma) was 63 µM, the TGI (SK-MEL-28 melanoma) was > 100 µM and the TGI (SK-MEL-5 melanoma) was > 100 µM. For the same molecule, the TGI (SK-OV-3 ovarian) was > 100 µM, the TGI (SN12C renal) was > 100 µM and the TGI (SNB-19 CNS) was > 100 µM. The TGI (SNB-75 CNS) was > 100 µM, the TGI (SR leukemia) was > 100 µM and the TGI (SW-620 colon) was > 100 µM. The TGI (T-47D breast) was > 100 µM, the TGI (U251 CNS) was > 100 µM and the TGI (UACC-257 melanoma) was > 100 µM. The TGI (UACC-62 melanoma) was > 100 µM.

In the case of `Cc1ccc(NC(=O)/C=C/c2ccccc2)c(C)c1`, the TGI (786-0 renal) is reported as > 100 µM, the TGI (A498 renal) is reported as > 100 µM and the TGI (A549 NSCLC) is reported as > 100 µM. For the same molecule, the TGI (ACHN renal) was > 100 µM, the TGI (BT-549 breast) was > 100 µM and the TGI (CAKI-1 renal) was > 100 µM. The TGI (CCRF-CEM leukemia) was > 100 µM, the TGI (COLO 205 colon) was > 100 µM and the TGI (DU-145 prostate) was > 100 µM. For the same molecule, the TGI (EKVX NSCLC) was > 100 µM, the TGI (HCC-2998 colon) was > 100 µM and the TGI (HCT-116 colon) was > 100 µM. The TGI (HCT-15 colon) was > 100 µM, the TGI (HL-60(TB) leukemia) was > 100 µM and the TGI (HOP-62 NSCLC) was > 100 µM. For the same molecule, the TGI (HS 578T breast) was 74.4 µM, the TGI (HT29 colon) was > 100 µM and the TGI (K-562 leukemia) was > 100 µM. For the same molecule, the TGI (KM12 colon) was > 100 µM, the TGI (LOX IMVI melanoma) was > 100 µM and the TGI (M14 melanoma) was > 100 µM. The TGI (MALME-3M melanoma) was > 100 µM, the TGI (MCF7 breast) was > 100 µM and the TGI (MDA-MB-231 breast) was > 100 µM. The TGI (MDA-MB-435) was > 100 µM, the TGI (MDA-N) was > 100 µM and the TGI (MOLT-4 leukemia) was > 100 µM. The TGI (NCI-H226 lung) was 92 µM, the TGI (NCI-H23 lung) was > 100 µM and the TGI (NCI-H460 lung) was > 100 µM. For the same molecule, the TGI (NCI-H522 lung) was > 100 µM, the TGI (OVCAR-3 ovarian) was > 100 µM and the TGI (OVCAR-4 ovarian) was > 100 µM. For the same molecule, the TGI (OVCAR-5 ovarian) was > 100 µM, the TGI (OVCAR-8 ovarian) was > 100 µM and the TGI (PC-3 prostate) was > 100 µM. For the same molecule, the TGI (RPMI-8226 leukemia) was > 100 µM, the TGI (SF-268 CNS) was > 100 µM and the TGI (SF-539 CNS) was > 100 µM. The TGI (SK-MEL-2 melanoma) was > 100 µM, the TGI (SK-MEL-28 melanoma) was > 100 µM and the TGI (SK-MEL-5 melanoma) was > 100 µM. The TGI (SK-OV-3 ovarian) was > 100 µM, the TGI (SN12C renal) was > 100 µM and the TGI (SNB-19 CNS) was > 100 µM. For the same molecule, the TGI (SNB-75 CNS) was > 100 µM, the TGI (SR leukemia) was > 100 µM and the TGI (SW-620 colon) was > 100 µM. For the same molecule, the TGI (T-47D breast) was > 100 µM, the TGI (TK-10 renal) was > 100 µM and the TGI (U251 CNS) was > 100 µM. The TGI (UACC-257 melanoma) was > 100 µM and the TGI (UACC-62 melanoma) was > 100 µM.
